How the values were obtained:
[1] = test system: mouse embryonic fibroblasts (129 or OG2 MEFs); test: Screen for iPSC generation from MEFs transduced with Oct4/Klf4 (OK); assay type: cell-based; conditions: for hit in second synergist screen: OK-transduced MEFs, 1 μM BIX in medium, compound 0.5-2 μM, not followed up
Method: Unmodified MEFs derived from E13-14 embryos of the 129 mice were used for the initial screen. MEFs were plated on Matrigel at 3.5×10^4 cells/well of a 6-well plate and transduced with OK (retroviral vectors expressing Oct4 and Klf4) alone. Within 14-21 days, treated cells were assessed for the appearance of colonies that had the characteristic embryonic stem cell (ESC) colony morphology and were positive for the pluripotency marker alkaline phosphatase (ALP). Such OK-transduced cells generated only a few small non-compact colonies, which were weakly positive for ALP expression. These colonies initially appeared within 21 days after viral transduction and were difficult to expand. Therefore, such assay system offered a clean background for the identification of small molecules having desirable reprogramming inducing activity. Using this system, compounds from a library of around 2000 known small molecules (see Experimental Procedures below) were screened and were identified as hits when they induced the appearance of ESC colonies that were strongly positive for ALP within 14-21 days after treatment. This image-based method provided a more accurate assessment of reprogramming as compared to homogenous reporter-based assay. BIX appeared to have the strongest effect with reproducible induction of more than 1-2 compact ESC-like colonies with high ALP expression. We observed that when MEFs were treated with BIX after OK viral transduction, compact colonies with strong ALP expression could be readily detected within approximately 14-21 days. These cells were also positive for Nanog, Oct4 and SSEA-1 expression. […] However, the reprogramming efficiency in MEFs transduced with OK and treated with BIX was still low, about 2 colonies/3.5×10^4 cells, in comparison to the four factor-induced reprogramming of MEFs or the OK/BIX NPC reprogramming (Shi, Y. et al., Cell Stem Cell, 2:525-528 (2008)). Therefore, we conducted a second screen using a similar protocol, but where BIX was added to the basal media after OK viral transduction. This provided a more permissive platform to identify new small molecules that could further improve reprogramming efficiency. More importantly, this second screen could facilitate discovery of small molecules that impact reprogramming in a more specific manner, for example by acting on signal transduction pathways rather than on histone or DNA modifying enzymes. In this second screen, we again assayed the library of around 2000 known small molecules (see Experimental Procedures), and confirmed two compounds that were able to act in a synergistic manner with BIX to improve reprogramming based on the criteria of the screen. […] Therefore, RG108 was not pursued further for this study. Instead, we focused our phenotypic and functional characterization on another small molecule that was identified in the second screen, BayK, an L-calcium channel agonist. […] Therefore, BayK might play a more specific role in the reprogramming process. When 129 MEFs were transduced with empty retrovirus (negative control); no colonies observed. When 129 MEFs were transduced with OK without small molecules; few small flattened colonies with weak ALP expression present. […] When OK-transduced MEFs were treated with BIX in combination with BayK, a significant increase in the number of ALP^+ colonies that closely resemble the mESC morphology could be observed (˜7 colonies) as compared to OK-transduced MEFs treated with BIX alone (˜2 colonies).
Primary 12952/SvPasCrlf (primary screen) or ROSA26^+/−/OG2^+/− (secondary screen) MEFs were plated onto Matrigel (1:50; BD Biosciences, Bedford, Mass.) coated dishes at a density of 3.5×10^4 cells per well of a 6-well plate. Twenty-four hours later, these cells were transduced overnight with defined retroviruses at 37° C., 5% CO2. […] (all products were from Invitrogen, Carlsbad, Calif., except where mentioned). […]

[2] = test system: human primary fibroblasts (CRL2097 or BJ); test: Reprogramming of human primary fibroblasts transduced with 4TFs; assay type: cell-based
Method: We tested known inhibitors of the TGFβ receptor and MEK on 1×10^4 [Feng, B. et al., Cell Stem Cell 4, 301-12 (2009)] human primary fibroblasts (CRL2097 or BJ) that were retrovirally transduced with the 4TFs (Oct4, Klf4, Sox2 and c-Myc), for their effects on reprogramming kinetics and efficiency. On day 7 (D7) post-infection, the compounds were added, individually or in combinations, and the cultures were examined for iPSCs over the next 1-3 weeks.
The Slc7a1-expressing human fibroblast cells were seeded at 1×10^5 cells/well of a 6 well plate on the day 1. On day 2, 0.25 ml of each retroviral supernatant was added to the cells in the presence of 6 μg/ml polybrene. A second round of transduction was done on day 3. Infection efficiency was estimated by fluorescence microscopy on cells transduced in parallel with GFP or RFP gene-carrying retroviruses. Seven days after initial transduction, fibroblasts were harvested by trypsinization and re-plated at 1×10^4 cells/well of a 6 well plate coated with matrigel (1:50 dilution, cat 354234, BD Biosciences). For compound treatment, the cells were cultured in human reprogramming medium (DMEM/F12, 20% Knockout serum replacer, lx MEM Non-Essential amino acid, lx glutamax, 0.11 mM 2-Mercaptoethanol, 20 ng/ml bFGF and 1,000 U/ml LIF) and were treated with 2 μM SB431542 (Stemgent), 0.5 μM PD0325901 (Stemgent), or combinations of the compounds. The media were changed every 2-3 days depending on the cell density. Seven days after compound treatment, either the plates were fixed and stained for Alkaline phosphatase (ALP) activity, or stained for protein markers, or the cultures were continued with or without indicated splitting by trypsinization till day 30. For split cultures, the cells were split (1:4) and re-plated onto irradiated CF-1 MEF feeder layer (2.5×10^5 cells/well) in each well of 6 well plate and were split (1:10) again on day 21. The cells were maintained in the same media and compound cocktail described above except for the concentrations of PD0325901 (0.5 μM for D14 and 1 μM for D21) and SB431542 (0.5-1 μM after D14). The iPSC colonies were subsequently maintained in conventional hESC media in the absence of the above compounds.
Alkaline phosphatase staining was performed using ALP detection kit (cat no: SCR004, Chemicon) according to the product instructions. For immunocytochemistry, cells were fixed in 4% paraformaldehyde (10 min, RT), washed twice with PBS, blocked using 5% normal donkey serum (Chemicon) and 0.1% TritonX-100 (15 min, RT) and then treated with primary antibodies overnight at 4° C. The primary antibodies used were anti-NANOG (cat no: AB9220, Chemicon, 1:1,000); anti-OCT4 (cat no: sc-5279, Santa Cruz biotech, 1:200), anti-SSEA 4 (cat no: mab4304, Chemicon, 1:500), anti-Tra-1-81 (cat 560123, BD Biosciences, 1:100), anti-Tra-1-81 (mAb 4381, Chemicon, 1:500), anti-βIII TUBULIN (cat no: MMS-435P, Covance Research Products Inc, 1:1000), anti-PDX 1 (1:500) (a kind gift from Dr. C. Wright), anti-BRACHYURY (cat No: AF2085, R & D, final concentration 0.2 μg/ml). The cells were washed twice with PBS and then treated with secondary antibodies for 1 hour at room temperature. The secondary antibodies used were Alexa fluor 488 donkey anti-rabbit or anti-mouse IgG (Invitrogen, 1:1,000) and Alexa fluor 555 donkey anti-rabbit or anti-mouse IgG (Invitrogen, 1:1,000). Nuclei were stained with 0.5 μg/ml DAPI (Sigma). Images were captured using a Nikon Eclipse TE2000-U/X-cite 120 EXFO microscope with a photometric CoolSnap HQ2 camera.
We tested the TGFβ receptor inhibitor (SB431542), MEK inhibitor (PD0325901) and GSK-3 inhibitor (CHIR99021), on human fibroblast crl2097 that were retrovirally transduced with Oct4, Klf4, Sox2 and c-Myc, for their effects on reprogramming kinetics and efficiency. Conditions are the same as set forth in Example 5. Data were collected 8 days after compound treatment.

[3] = test system: primary OG2 neural progenitor cells; test: iPS cell induction from neural progenitor cells after retroviral transduction; assay type: cell-based, mouse; conditions: applied at late stage of reprogramming (after Oct4-GFP activation)
Method: The reporter neural progenitor cells were generated using a well established protocol by differentiating the Oct4-GiP mESCs grown in monolayer on gelatin in a chemically defined medium/CDM condition in the absence of serum and other growth factors/cytokines at low cell density for eight days, followed by neurophere formation and subsequent serial passaging in single cells in neural cell expansion media supplemented with 10 ng/ml of bFGF and EGF in monolayer for over six passages/24 days. The resulting neural progenitor cells were homogenous by cell morphology and neural marker expression, and were confirmed to be GFP negative and puromycin sensitive. Such neural progenitor cells plated in monolayer in conventional mESC growth media were transduced with combinations of four, three, or two of the four factors, followed by treating the transduced cells with individual small molecules from a small known drug collection in a typical 6-well format. The compound treatment and culture were continued for additional ten days before puromycin was added. The number of green and puro-resistant colonies was counted at day 14. In comparison to the only four-gene transduced neural cells as the positive control, compound conditions that generated more green colonies than the corresponding gene-only conditions were picked as primary hits. To further confirm these primary hit conditions, we chose to use a late passage of mouse CNS neural progenitor cells (Do, J. T. et al., Stem Cells 25, 1013-1020 (2007)) that were derived from fetal brain of OG2^+/−/ROSA26^+/− transgenic mice (which contain an Oct4-GFP reporter) and expanded in monolayer under the same neural CDM condition as the above with 10 ng/ml of bFGF and EGF. Such cells truly from a non-pluripotent tissue would be devoid of concerns of any contaminating ES cell in the above screening system, which is highly unlikely with all appropriate controls. Similar culture conditions and reprogramming assays were performed using the OG2 neural progenitor cells except that puromycin was not used and green colonies were picked out and characterized by staining of Nanog, SSEA1 and ALP.
mESC-derived or primary OG2 mouse neural progenitor cells were plated into Matrigel (1:50, BD Biosciences) coated 6-well plates at 3.5×10^4 cells/well in the neural progenitor cell expansion media. After one day these cells were transduced with retrovirus for overnight, and the medium was changed into the mESC growth media [DMEM, 5% FBS, 10% KSR, 1× non-essential amino acids (Gibco), 2 mM L-glutamine (Gibco), 0.1 mM β-mercaptoethanol (Gibco) and 10^3 unit/ml LIF (Chemicon)] with or without BIX01294 (0.5-1 μM). GFP-positive iPS cell colonies appeared after 9-14 days, and were picked out and expanded on MEF feeder cells with the mESC growth media.

mouse fibroblasts = test: Reprogramming of mouse fibroblasts with exogenous poly-Arg transcription factor proteins; assay type: cell-based; conditions: cells incubated with transcription factor proteins plus agent
Method: Mouse fibroblasts were grown in mESC medium supplemented with 8 μg/ml of either Oct4/Sox2/Klf4 or Oct4/Sox2/Klf4/Myc (all proteins comprising poly-Arg as described above) for 6-8 hours, washed, and incubated for 2-3 days in mESC media without the above-listed transcription factors. This (4-12 hours with, 1-3 days without) was repeated a number (1, 2, 3, 4, or more) of times and then the cells were cultured in mESC for two weeks.
Mouse fibroblasts were grown in mESC growth medium [Knockout DMEM (Invitrogen) supplemented with 10% ES-FBS+10% KSR, 0.1 mM 2-ME, 1% Glutamax, 1% Non-essential amino acids, 1% EmbryoMax ESC Qualified Nucleosides (Millipore), and 10^3 units/ml LIF (ESGRO, Chemicon International)] supplemented with 8 μg/ml of Oct4/Sox2/Klf4/Myc (all four transcription factors are tagged with poly-Arg […]; SEQ ID NO:2) for 4-12 hours, followed by culturing the cells in the absence of the Oct4/Sox2/Klf4/Myc polypeptides for one day. This procedure was repeated 4 times. The cells were then cultured in mESC medium for another two weeks. iPSC clones were detected by colony morphology and expression of pluripotency markers. An intermediate iPSC clone, which expresses ALP but not Oct4 (Oct4), was dissociated with Trypsin-EDTA. The clone was then expanded by continuous culturing with regular mESC medium or medium supplemented with 0.5 μM PD0325901, 3 μM CHIR99021, 0.5 μM A-83-01. The number of Oct4-positive colonies were counted 2 weeks after small molecule treatment (FIG. 14).

c1nc2nc(Nc3ccc(N4CCOCC4)cc3)nc(NC3CCCCC3)c2[nH]1 [reversine] was tested, and the “hit in second synergist screen” value [1] was “primary hits”.
With TGFβ the “effect on 4 factor-mediated reprogramming of fibroblasts” value ([2]; addition of TGFβ) was “had an inhibitory effect on 4 factor-mediated reprogramming of fibroblasts”.
For CCN(CC)CCCCNc1ncc2cc(-c3cc(OC)cc(OC)c3)c(NC(=O)NC(C)(C)C)nc2n1 [PD173074], the “hit in second synergist screen” value [1] was “primary hits”.
In the case of O=C(NOC[C@H](O)CO)c1ccc(F)c(F)c1Nc1ccc(I)cc1F [PD0325901], the “growth of non-iPS cells and iPS cells (selection)” value [3] is reported as “inhibits growth of non-iPS cells while it effectively promotes growth and stable reprogramming of iPS cells”, the “efficiency and speed of development of pluripotent cells” value (mouse fibroblasts) is reported as “improved efficiency and speed of development of pluripotent cells” and the “ALP+ colonies with hESC-like morphology (FIG. 7A)” value ([2]; 4TFs transduced fibroblasts, 7 days after compound treatment, SB431542 at 2 μM) is reported as “yielded none”. For the same compound, the “colonies stained positive for SSEA4 and NANOG” value ([2]; day 7 post-treatment (D14)) was “no NANOG^+ colonies were observed”.
For O=C(O)C(Cc1c[nH]c2ccccc12)N1C(=O)c2ccccc2C1=O (stereo not drawn) [RG108], the “reprogramming of OK transduced MEFs (second screen)” value ([1]; in the presence of BIX) was “enhanced reprogramming of OK transduced MEFs in the presence of BIX”.
With Cc1cc(Nc2ncc3c(n2)N(C)C(=O)N(c2cc(NC(=O)c4cccc(C(F)(F)F)c4)ccc2C)C3)n(C)n1 [pluripotin] the “hit in second synergist screen” value [1] was “primary hits”.
